Our source for the GI50 values is patent publication US20250221998A1, “DISCOVERY OF COVALENT EGFR INHIBITOR THROUGH CYSTEINE 775” (Dana-Farber Cancer Institute, Inc., priority 2022, published 2025).

In test [1] the target is EGFR mutant L858R Ba/F3 cells (Homo sapiens, UniProt P00533, L858R, cells depend on it). Briefly: Ba/F3 cell proliferation (Cell Titer Glo), EGFR L858R. The following applies: 72 hours exposure, read-out: L858R BaF3 (μM), inhibitory activity against EGFR mutants. It is filed as cell-based, murine. An excerpt: (§1) The EGFR mutant L858R Ba/F3 cells have been previously described (Zhou, W., et al. Nature 462, 2009, 1070-1074). The EGFR C797S and C775S mutations were introduced via site directed mutagenesis using the Quick Change Site-Directed Mutagenesis kit into a vector containing EGFR L858R mutation (Stratagene; La Jolla, CA) according to the manufacturer's instructions. All constructs were confirmed by DNA sequencing. The constructs were then shuttled into the retroviral vector JP1540 by either using the Cre-recombination system (Agilent Technologies, Santa Clara, CA) or the In-fusion HD Cloning kit (Takara Bio USA, Inc.; Mountain view, CA). Ba/F3 cells were then infected with retrovirus per standard protocols, as described previously (Zhou, et al, Nature 2009). Stable clones were obtained by selection in puromycin (2 ug/ml). All BaF/3 mutant cells were maintained in RPMI 1640 (Cellgro; Mediatech Inc., Herndon, CA) supplemented with 10% FBS, 100 units/mL penicillin, 100 units/mL streptomycin.
Chain of EGFR mutant L858R Ba/F3 cells (P00533 whole entry L858R, the tested form may be a part): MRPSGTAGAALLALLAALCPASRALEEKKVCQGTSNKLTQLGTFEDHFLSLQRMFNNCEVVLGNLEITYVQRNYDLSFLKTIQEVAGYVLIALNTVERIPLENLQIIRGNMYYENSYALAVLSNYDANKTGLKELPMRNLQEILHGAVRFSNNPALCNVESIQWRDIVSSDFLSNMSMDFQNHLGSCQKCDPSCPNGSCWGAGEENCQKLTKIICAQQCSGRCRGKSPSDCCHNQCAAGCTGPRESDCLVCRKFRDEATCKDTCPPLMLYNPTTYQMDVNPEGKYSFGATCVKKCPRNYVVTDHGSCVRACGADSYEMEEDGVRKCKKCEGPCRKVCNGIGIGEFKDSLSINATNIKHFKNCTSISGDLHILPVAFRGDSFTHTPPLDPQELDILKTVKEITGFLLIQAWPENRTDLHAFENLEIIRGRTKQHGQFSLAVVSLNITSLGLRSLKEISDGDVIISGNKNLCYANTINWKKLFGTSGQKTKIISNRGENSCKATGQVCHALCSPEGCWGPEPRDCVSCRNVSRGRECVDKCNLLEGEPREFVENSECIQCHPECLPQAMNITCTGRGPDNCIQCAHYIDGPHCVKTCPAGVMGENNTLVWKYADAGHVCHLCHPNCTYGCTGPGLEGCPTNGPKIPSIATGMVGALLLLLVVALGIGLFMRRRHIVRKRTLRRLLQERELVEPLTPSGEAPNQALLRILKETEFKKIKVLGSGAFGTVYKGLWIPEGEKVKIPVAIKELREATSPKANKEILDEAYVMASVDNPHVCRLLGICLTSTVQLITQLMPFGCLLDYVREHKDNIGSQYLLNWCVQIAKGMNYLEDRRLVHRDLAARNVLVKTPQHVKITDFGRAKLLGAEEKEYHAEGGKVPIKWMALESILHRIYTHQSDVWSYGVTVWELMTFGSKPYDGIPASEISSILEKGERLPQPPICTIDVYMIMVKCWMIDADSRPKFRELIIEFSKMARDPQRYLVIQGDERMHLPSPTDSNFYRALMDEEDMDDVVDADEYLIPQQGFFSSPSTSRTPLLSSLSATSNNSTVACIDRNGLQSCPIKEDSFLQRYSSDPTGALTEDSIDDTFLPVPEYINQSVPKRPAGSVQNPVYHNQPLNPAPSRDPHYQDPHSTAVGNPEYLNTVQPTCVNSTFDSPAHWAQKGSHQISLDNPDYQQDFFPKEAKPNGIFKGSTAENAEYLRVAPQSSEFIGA
(§2) Growth and inhibition of growth was assessed by the Cell Titer Glo assay (Promega, Madison, WI) and was performed according to the manufacturer's instructions. The Cell Titer Glo assay is a luminescence-based method used to determine the number of viable cells based on quantitation of the ATP present, which is directly proportional to the amount of metabolically active cells present. Ba/F3 cells of different EGFR genotypes were exposed to compounds for 72 hours and the number of cells used per experiment was determined empirically as has been previously established (Zhou, et al., Nature 2009). All experimental points were set up in triplicates in 384-well plates. […] The curves were fitted using a non-linear regression model with a sigmoidal dose response.
(§3) For inhibitory activity against EGFR mutants, the following designations are used: ≤0·25 μM=A, 0·25 μM˜0.5 μM=B, 0.5 μM˜2.5 μM=C, ≥2.5 μM=D.

In test [2] the target is EGFR L858R/C797S Ba/F3 cells (Homo sapiens, UniProt P00533, C797S/L858R, cells depend on it). In words: Ba/F3 cell proliferation (Cell Titer Glo), EGFR L858R/C797S. The conditions noted are these: 72 hours exposure, read-out: L858R/C797S (μM), inhibitory activity against EGFR mutants. It is filed as cell-based, murine.
Chain of EGFR L858R/C797S Ba/F3 cells (P00533 whole entry C797S/L858R): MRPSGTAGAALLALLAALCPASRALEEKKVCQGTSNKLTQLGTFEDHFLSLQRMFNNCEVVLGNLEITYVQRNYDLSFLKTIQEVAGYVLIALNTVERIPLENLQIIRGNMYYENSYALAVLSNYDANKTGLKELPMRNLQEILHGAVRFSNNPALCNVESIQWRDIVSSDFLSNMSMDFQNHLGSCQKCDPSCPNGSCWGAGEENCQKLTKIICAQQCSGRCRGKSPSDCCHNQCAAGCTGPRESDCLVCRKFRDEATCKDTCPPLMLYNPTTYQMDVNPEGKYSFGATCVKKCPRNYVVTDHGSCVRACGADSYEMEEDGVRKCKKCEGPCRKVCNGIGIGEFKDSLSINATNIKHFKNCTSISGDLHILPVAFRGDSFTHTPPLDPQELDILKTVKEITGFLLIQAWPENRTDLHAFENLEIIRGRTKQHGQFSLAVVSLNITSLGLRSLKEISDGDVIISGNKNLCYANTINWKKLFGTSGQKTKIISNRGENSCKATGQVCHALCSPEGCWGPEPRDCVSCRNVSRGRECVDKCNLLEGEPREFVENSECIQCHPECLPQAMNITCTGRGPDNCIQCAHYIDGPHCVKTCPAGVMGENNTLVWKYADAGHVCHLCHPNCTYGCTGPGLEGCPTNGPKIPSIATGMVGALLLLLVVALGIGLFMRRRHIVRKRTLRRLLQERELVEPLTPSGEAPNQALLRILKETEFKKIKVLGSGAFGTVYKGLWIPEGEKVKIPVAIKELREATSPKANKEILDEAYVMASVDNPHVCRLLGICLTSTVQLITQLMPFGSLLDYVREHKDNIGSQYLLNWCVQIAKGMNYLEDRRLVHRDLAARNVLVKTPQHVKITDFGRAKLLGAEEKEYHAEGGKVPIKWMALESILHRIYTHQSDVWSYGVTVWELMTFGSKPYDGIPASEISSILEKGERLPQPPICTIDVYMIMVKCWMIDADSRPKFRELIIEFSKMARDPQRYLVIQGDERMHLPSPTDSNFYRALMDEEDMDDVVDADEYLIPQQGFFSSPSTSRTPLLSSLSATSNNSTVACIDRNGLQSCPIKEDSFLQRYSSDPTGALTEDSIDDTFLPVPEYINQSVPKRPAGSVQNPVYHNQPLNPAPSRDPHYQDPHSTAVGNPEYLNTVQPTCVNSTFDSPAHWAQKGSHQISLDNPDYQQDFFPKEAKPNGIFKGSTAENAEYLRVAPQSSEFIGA
Description: as §1, §2, §3
For orientation: In ATP-based viability assays light output follows the ATP content of the culture.

`C=CC(=O)N1CCN(c2cc3cnc(Nc4ccc(N5CCN(C)CC5)nc4)nc3n(C)c2=O)c2cccc(C)c21` [Compound 031]: the GI50 in test [1] and in test [2] was at most 0.25 µM in each case.
For `CCC(=O)N1CCN(c2cc3cnc(Nc4ccc(N5CCN(C)CC5)cc4)nc3n(C)c2=O)c2cccc(C)c21` [Compound 026], the GI50 in test [1] and in test [2] was 0.5 to 2.5 µM each time.
Turning to `C=CC(=O)N1CCN(c2cc3cnc(N)nc3n(-c3cccc(OC)c3)c2=O)c2cccc(C)c21` [Compound 090], the GI50 is at most 0.25 µM in test [1] and 0.25 to 0.5 µM in test [2].
Taken in the same sequence, the figures for `C=CC(=O)N1CCN(c2cc3cnc(N)nc3n([C@H]3CC[C@@](C)(O)CC3)c2=O)c2cccc(C)c21` [Compound 088, 6-(4-acryloyl-5-methyl-3,4-dihydroquinoxalin-1 (2H)-yl)-2-amino-8-((1s,4s)-4-hydroxy-4-methylcyclohexyl)pyrido[2,3-d]pyrimidin-7 (8H)-one] were at most 0.25 µM and at most 0.25 µM.
Taken in the same sequence, the figures for `C=CC(=O)N1CCN(c2cc3cnc(Nc4cc(OC)ncc4C)nc3n(C)c2=O)c2cccc(C)c21` [Compound 063] were 0.25 to 0.5 µM and 0.5 to 2.5 µM.
Turning to `C=CC(=O)N1CCN(c2cc3cnc(Nc4ccc(CN5CCN(C)CC5)cc4)nc3n(C)c2=O)c2cccc(C)c21` [Compound 050], the GI50 in test [1] and in test [2] was at most 0.25 µM throughout.
With `C=CC(=O)N1CC2CCN(c3cc4cnc(Nc5ccc(N6CCN(C)CC6)cc5)nc4n(C)c3=O)C[C@@H]2C1` (some centres unmarked) [Compound 023, 8-methyl-2-[4-(4-methylpiperazin-1-yl)anilino]-6-(2-prop-2-enoyl-3,3a,4,6,7,7a-hexahydro-1H-pyrrolo[3,4-c]pyridin-5-yl)pyrido[2,3-d]pyrimidin-7-one], the GI50 in test [1] and in test [2] was at least 2.5 µM in each case.
As to `C=CC(=O)N1CCN(c2cc3cnc(N)nc3n(-c3ccc(OCCN(C)C)c(F)c3)c2=O)c2cccc(C)c21` [Compound 104, 2-amino-8-[4-[2-(dimethylamino)ethoxy]-3-fluoro-phenyl]-6-(5-methyl-4-prop-2-enoyl-2,3-dihydroquinoxalin-1-yl)pyrido[2,3-d]pyrimidin-7-one], the GI50 in test [1] and in test [2] was at most 0.25 µM each time.
For the compound `C=CC(=O)N1CCN(c2cc3cnc(Nc4cnn(C5CCN(C)CC5)c4)nc3n(C)c2=O)c2cccc(C)c21` [Compound 039, 8-methyl-2-[[1-(1-methyl-4-piperidyl)pyrazol-4-yl]amino]-6-(5-methyl-4-prop-2-enoyl-2,3-dihydroquinoxalin-1-yl)pyrido[2,3-d]pyrimidin-7-one], the GI50 in test [1] and in test [2] was at most 0.25 µM in each case.
Take `C=CC(=O)N1CCN(c2cc3cnc(NC4CC4)nc3n(CC3CCOC3)c2=O)c2cccc(C)c21` (centres unmarked) [Compound 106, 2-(cyclopropylamino)-6-(5-methyl-4-prop-2-enoyl-2,3-dihydroquinoxalin-1-yl)-8-(tetrahydrofuran-3-ylmethyl)pyrido[2,3-d]pyrimidin-7-one]: the values for the GI50 in test [1] and in test [2] were at most 0.25 µM and 0.25 to 0.5 µM, respectively.
For `C=CC(=O)N1CCN(c2cc3cnc(Nc4ccc(OCCN(C)C)cc4)nc3n([C@H]3C[C@H](O)C3)c2=O)c2cccc(C)c21` [Compound 044], the GI50 in test [1] and in test [2] was at most 0.25 µM each time.
Regarding `C=CC(=O)N1CCN(c2cc3cnc(Nc4ccc(OC5CN(S(C)(=O)=O)C5)cc4)nc3n(C)c2=O)c2cccc(C)c21` [Compound 049], the GI50 in test [1] and in test [2] was at most 0.25 µM throughout.
Regarding `C=CC(=O)N1CCN(c2cc3cnc(Nc4ccc(N5CCN(C)CC5)cc4)nc3n(-c3cccnc3)c2=O)c2cccc(C)c21` [Compound 052, 2-[4-(4-methylpiperazin-1-yl)anilino]-6-(5-methyl-4-prop-2-enoyl-2,3-dihydroquinoxalin-1-yl)-8-(3-pyridyl)pyrido[2,3-d]pyrimidin-7-one], the GI50 in test [1] and in test [2] was at most 0.25 µM throughout.
As for `C=CC(=O)N1CCN(c2cc3cnc(Nc4ccc(OCCN(C)C)cc4)nc3n(C3CC(O)C3)c2=O)c2cccc(C)c21` (centres unmarked) [Compound 042, 2-[4-[2-(dimethylamino)ethoxy]anilino]-8-(3-hydroxycyclobutyl)-6-(5-methyl-4-prop-2-enoyl-2,3-dihydroquinoxalin-1-yl)pyrido[2,3-d]pyrimidin-7-one], the GI50 in test [1] and in test [2] was at most 0.25 µM throughout.
Consider `C=CC(=O)N1CCN(c2cc3cnc(Nc4ccc(N5CCN(C)CC5)cc4)nc3n(C)c2=O)C(c2ccccc2)C1` (centres unmarked) [Compound 011, 8-methyl-2-[4-(4-methylpiperazin-1-yl)anilino]-6-(2-phenyl-4-prop-2-enoyl-piperazin-1-yl)pyrido[2,3-d]pyrimidin-7-one], for which the GI50 in test [1] and in test [2] was at least 2.5 µM each time.
With `C=CC(=O)N1CCN(c2cc3cnc(N)nc3n(-c3ccc(N4CCN(C)CC4)cc3)c2=O)c2cccc(C)c21` [Compound 092, 2-amino-8-[4-(4-methylpiperazin-1-yl)phenyl]-6-(5-methyl-4-prop-2-enoyl-2,3-dihydroquinoxalin-1-yl)pyrido[2,3-d]pyrimidin-7-one], the GI50 in test [1] and in test [2] was at most 0.25 µM throughout.
On to `C=CC(=O)N1CCN(c2cc3cnc(Nc4cnn(CCO)c4)nc3n(C)c2=O)c2cccc(OC)c21` [Compound 020, 2-[[1-(2-hydroxyethyl)pyrazol-4-yl]amino]-6-(5-methoxy-4-prop-2-enoyl-2,3-dihydroquinoxalin-1-yl)-8-methyl-pyrido[2,3-d]pyrimidin-7-one], for which the GI50 in test [1] is at most 0.25 µM; in test [2], 0.25 to 0.5 µM.
For the compound `C=CC(=O)N1CCN(c2cc3cnc(Nc4ccc(N5CCN(C)CC5)cc4)nc3n(C)c2=O)c2cccc(N)c21` [Compound 065, 6-(5-amino-4-prop-2-enoyl-2,3-dihydroquinoxalin-1-yl)-8-methyl-2-[4-(4-methylpiperazin-1-yl)anilino]pyrido[2,3-d]pyrimidin-7-one], the GI50 in test [1] and in test [2] was at most 0.25 µM throughout.
For `C=CC(=O)N1CCN(c2cc3cnc(N)nc3n(-c3ccc(CN4CCOCC4)cc3)c2=O)c2cccc(C)c21` [Compound 094, 2-amino-6-(5-methyl-4-prop-2-enoyl-2,3-dihydroquinoxalin-1-yl)-8-[4-(morpholinomethyl)phenyl]pyrido[2,3-d]pyrimidin-7-one], the GI50 in test [1] and in test [2] was at most 0.25 µM throughout.
As for `C=CC(=O)N1CCN(c2cc3cnc(Nc4cc5n(c4)CCN(C)C5=O)nc3n(C)c2=O)c2cccc(C)c21` [Compound 073, 8-methyl-2-[(2-methyl-1-oxo-3,4-dihydropyrrolo[1,2-a]pyrazin-7-yl)amino]-6-(5-methyl-4-prop-2-enoyl-2,3-dihydroquinoxalin-1-yl)pyrido[2,3-d]pyrimidin-7-one], the GI50 in test [1] and in test [2] was at most 0.25 µM each time.
With `C=CC(=O)N1CCN(c2cc3cnc(Nc4cnn(CCN(C)C)c4)nc3n(C)c2=O)c2cccc(C)c21` [Compound 037, 2-[[1-[2-(dimethylamino)ethyl]pyrazol-4-yl]amino]-8-methyl-6-(5-methyl-4-prop-2-enoyl-2,3-dihydroquinoxalin-1-yl)pyrido[2,3-d]pyrimidin-7-one], the GI50 in test [1] and in test [2] was at most 0.25 µM throughout.
As for `C=CC(=O)N1CCN(c2cc3cnc(Nc4ccc(N5CCN(C)CC5)cc4)nc3n(C)c2=O)C2CC21` (centres unmarked) [Compound 024, 8-methyl-2-[4-(4-methylpiperazin-1-yl)anilino]-6-(5-prop-2-enoyl-2,5-diazabicyclo[4.1.0]heptan-2-yl)pyrido[2,3-d]pyrimidin-7-one], the GI50 in test [1] and in test [2] was at least 2.5 µM throughout.
Take `C=CC(=O)N1CCN(c2cc3cnc(Nc4ccccc4)nc3n([C@H]3C[C@@H](O)C3)c2=O)c2cccc(C)c21` [Compound 069]: the GI50 in test [1] and in test [2] was at most 0.25 µM in each case.
`C=CC(=O)N1CCN(c2cc3cnc(Nc4ccc(N5CCN(C)CC5)cc4)nc3n(C)c2=O)C(=O)C1` [Compound 025, 8-methyl-2-[4-(4-methylpiperazin-1-yl)anilino]-6-(2-oxo-4-prop-2-enoyl-piperazin-1-yl)pyrido[2,3-d]pyrimidin-7-one]: the GI50 in test [1] and in test [2] was at least 2.5 µM throughout.
Take `C=CC(=O)N1CCN(c2cc3cnc(Nc4cc5n(c4)CCN(C)C5)nc3n(C)c2=O)c2cccc(C)c21` [Compound 085, 8-methyl-2-[(2-methyl-3,4-dihydro-1H-pyrrolo[1,2-a]pyrazin-7-yl)amino]-6-(5-methyl-4-prop-2-enoyl-2,3-dihydroquinoxalin-1-yl)pyrido[2,3-d]pyrimidin-7-one]: the GI50 in test [1] and in test [2] was at least 2.5 µM in each case.
